Among the test systems are NCI-H226; A498; U-251; UO-31; KM12; MCF7; HT-29; SF-268; A549; OVCAR-5; SW-620; SF-539; EKVX; COLO 205; M14; ACHN; CAKI-1; 786-0.
Common to all, as to assay: NCI-60 cell line screen, 48 h

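In this assay, cells in 96-well plates receive the compound at five concentrations for 48 hours. Endpoints are linearly interpolated between the surrounding concentrations. GI50: concentration for 50% inhibition of growth.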 Calls of active or inactive are those of the source. No stated cut-off is given here; in the data, active = GI50 up to about 1.1 µM and inactive = higher.

`COC1C(O)C(n2ncc3c(SC)nc(SC)nc32)OC1C(O)CO` (stereo not drawn): the GI50 in the experiment with NCI-H226, with A498, with U-251, in the experiment on UO-31, in the experiment with KM12 and in the experiment with MCF7 was > 100 µM (inactive) throughout. Further, the GI50 with HT-29, in the experiment on SF-268, in the experiment on A549, in the experiment on OVCAR-5, with SW-620 and in the experiment on SF-539 was > 100 µM (inactive) each time. Also, the GI50 with EKVX and with COLO 205 was > 100 µM (inactive) throughout.
`O=C1NC(=O)C(CCO)(c2ccccc2)C(=O)N1`: the GI50 in the experiment on NCI-H226, with A498, with U-251, with UO-31, with KM12 and in the experiment with MCF7 was > 100 µM (inactive) in each case. The GI50 in the experiment with HT-29, in the experiment on SF-268, in the experiment on A549, with OVCAR-5, with SW-620 and in the experiment with SF-539 was > 100 µM (inactive) throughout. For the same compound, the GI50 in the experiment with EKVX and in the experiment on COLO 205 was > 100 µM (inactive) each time.
As for `Nc1ccccc1S(=O)(=O)c1ccccc1`, the GI50 with M14 is > 100 µM (inactive); in the experiment with NCI-H226, 51.2 µM (inactive); in the experiment on A498, > 100 µM (inactive); in the experiment on U-251, > 100 µM (inactive); in the experiment on UO-31 it was > 100 µM (inactive); in the experiment on KM12, > 100 µM (inactive). Besides, the GI50 in the experiment with HT-29, in the experiment on ACHN, in the experiment on SF-268, in the experiment with A549, in the experiment with OVCAR-5 and with SW-620 was > 100 µM (inactive) each time. Further, the GI50 with SF-539, in the experiment on EKVX and in the experiment with COLO 205 was > 100 µM (inactive) throughout.
In the case of `COc1ccc2[nH]c3c(C)c4ccncc4c(C)c3c2c1`, the GI50 in the experiment with NCI-H226 was 1.13 µM (inactive); with A498, 0.504 µM (active); in the experiment with U-251, 0.513 µM (active); in the experiment on CAKI-1, 0.601 µM (active); in the experiment with UO-31, 1.42 µM (inactive); in the experiment on KM12 it was 0.152 µM (active). For the same compound, the GI50 in the experiment on MCF7 was 0.359 µM (active); in the experiment with HT-29 it was 0.212 µM (active); in the experiment with SF-268, 0.429 µM (active); with A549 it was 0.264 µM (active); in the experiment with OVCAR-5 it was 1.42 µM (inactive); in the experiment with SW-620, 0.0918 µM (active). For the same compound, the GI50 in the experiment on SF-539 was 0.409 µM (active); in the experiment with EKVX, 1.01 µM (active); in the experiment with COLO 205, 0.19 µM (active).
On to `CCOC(=O)c1c[nH]c2cc3c(cc2c1=O)CCS3(=O)=O.CCOC(=O)c1c[nH]c2ccc3c(c2c1=O)S(=O)(=O)CC3`, for which the GI50 was 62.4 µM (inactive) in the experiment with NCI-H226; > 100 µM (inactive) with A498; > 100 µM (inactive) with U-251; > 100 µM (inactive) with CAKI-1; > 100 µM (inactive) in the experiment with UO-31; > 100 µM (inactive) with KM12. Also, the GI50 in the experiment on MCF7 was 83.8 µM (inactive); in the experiment with HT-29 it was > 100 µM (inactive); in the experiment with SF-268, > 100 µM (inactive); with A549 it was > 100 µM (inactive); with OVCAR-5 it was > 100 µM (inactive); in the experiment with SW-620, > 100 µM (inactive). Also, the GI50 in the experiment on SF-539, with EKVX and in the experiment with COLO 205 was > 100 µM (inactive) each time.
Take `Cc1ccc(C#CS(=O)(=O)C(F)(F)F)cc1`: the GI50 in the experiment with NCI-H226 was > 89.7 µM (inactive); in the experiment with A498, > 100 µM (inactive); with U-251, > 100 µM (inactive); in the experiment on UO-31, > 100 µM (inactive); in the experiment with KM12, > 100 µM (inactive); in the experiment with MCF7 it was > 100 µM (inactive). The GI50 in the experiment with HT-29, in the experiment with SF-268, in the experiment with A549, with OVCAR-5, in the experiment on SW-620 and with SF-539 was > 100 µM (inactive) each time. Besides, the GI50 in the experiment on EKVX and in the experiment with COLO 205 was > 100 µM (inactive) in each case.
`CN(C)CCCNC(=O)N/N=C/c1ccccc1`: the GI50 in the experiment with NCI-H226, in the experiment with A498, with U-251, in the experiment on UO-31, in the experiment on KM12 and in the experiment on HT-29 was > 100 µM (inactive) each time. In addition, the GI50 with ACHN, in the experiment with SF-268, in the experiment on A549, with SW-620 and with SF-539 was > 100 µM (inactive) throughout.
Regarding `CC(=O)SCCC1c2[nH]c3ccccc3c2CCN1O` (stereo not drawn), the GI50 was > 100 µM (inactive) in the experiment with M14; > 100 µM (inactive) in the experiment on U-251; 59.7 µM (inactive) in the experiment on CAKI-1; > 100 µM (inactive) in the experiment with UO-31; 68.9 µM (inactive) in the experiment on KM12; > 100 µM (inactive) with HT-29. Moreover, the GI50 with ACHN was > 100 µM (inactive); in the experiment with SF-268, > 100 µM (inactive); in the experiment with A549 it was > 100 µM (inactive); in the experiment with OVCAR-5, 71.4 µM (inactive); in the experiment on SW-620 it was 28.1 µM (inactive); in the experiment with SF-539 it was > 100 µM (inactive). The GI50 in the experiment with EKVX, in the experiment with 786-0 and in the experiment with COLO 205 was > 100 µM (inactive) each time.
As for `COc1ccc(/C=C2\C(=O)N(C(=O)c3ccc(NC(C)=O)cc3)N=C2C)cc1`, the GI50 with M14, in the experiment with NCI-H226, in the experiment with CAKI-1, in the experiment on UO-31, in the experiment on KM12 and in the experiment with HT-29 was > 100 µM (inactive) in each case. Further, the GI50 with ACHN, with SF-268, in the experiment on A549, in the experiment with OVCAR-5, in the experiment with SW-620 and in the experiment with SF-539 was > 100 µM (inactive) in each case. The GI50 with EKVX, in the experiment on 786-0 and in the experiment with COLO 205 was > 100 µM (inactive) each time.
As to `Nc1ccccc1Sc1ccc(Cl)cc1`, the GI50 was 31.8 µM (inactive) in the experiment with M14; 4.86 µM (inactive) in the experiment on NCI-H226; 54.2 µM (inactive) in the experiment on A498; 16.2 µM (inactive) with U-251; 17.9 µM (inactive) in the experiment on UO-31; 33.4 µM (inactive) in the experiment with KM12. For the same compound, the GI50 with HT-29 was 19.1 µM (inactive); in the experiment on ACHN it was 27 µM (inactive); in the experiment on SF-268, 39.6 µM (inactive); with A549 it was 37.2 µM (inactive); in the experiment on OVCAR-5, 29.9 µM (inactive); in the experiment with SW-620 it was 37.1 µM (inactive). The values for the GI50 in the experiment with SF-539, in the experiment with EKVX and in the experiment on COLO 205 were 35.4 µM (inactive), 30.1 µM (inactive) and 21.1 µM (inactive), respectively.
`C=CCC12CC(=O)C=C1CCC1(C2)OCCO1` (stereo not drawn): the GI50 in the experiment on M14, in the experiment with NCI-H226, in the experiment with A498, in the experiment on U-251, with CAKI-1 and with UO-31 was > 100 µM (inactive) throughout. Further, the GI50 in the experiment with KM12, with ACHN, in the experiment with SF-268, in the experiment on A549, with SW-620 and with SF-539 was > 100 µM (inactive) in each case. Further, the GI50 in the experiment with 786-0 and in the experiment with COLO 205 was > 100 µM (inactive) in each case.
In the case of `O=C(O)c1ccc(Nc2c3ccccc3nc3ccccc23)cc1`, the GI50 in the experiment with NCI-H226 was 31.8 µM (inactive); with A498, 52.6 µM (inactive); with U-251 it was 51.6 µM (inactive); in the experiment on CAKI-1, 49.9 µM (inactive); with UO-31 it was 54.6 µM (inactive); with KM12 it was > 100 µM (inactive). For the same compound, the GI50 was 71.1 µM (inactive) with MCF7; 97.9 µM (inactive) in the experiment on HT-29; 67.9 µM (inactive) in the experiment on SF-268; 41.2 µM (inactive) in the experiment with A549; > 100 µM (inactive) in the experiment with OVCAR-5; 59.7 µM (inactive) in the experiment with SW-620. Also, the GI50 with SF-539 was > 78.2 µM (inactive); with EKVX it was > 100 µM (inactive); in the experiment with COLO 205 it was > 100 µM (inactive).
`CN1CC[C@]2(C)c3c(O)cccc3CC3CCCC1C32C` (stereo partly drawn): the GI50 with M14, in the experiment on NCI-H226, in the experiment on A498, with U-251, with CAKI-1 and with UO-31 was > 100 µM (inactive) each time. Also, the GI50 with KM12, in the experiment with HT-29, in the experiment with ACHN, in the experiment on SF-268, with A549 and in the experiment with OVCAR-5 was > 100 µM (inactive) in each case. Moreover, the GI50 with SF-539, in the experiment with EKVX, in the experiment with 786-0 and in the experiment with COLO 205 was > 100 µM (inactive) in each case.

For the origin of these results see ChEMBL document CHEMBL1201862, “PubChem BioAssay data set” (2004).
